Test results as given in patent publication US5602106A, “16-membered macrolide derivatives” (priority 1993, dated 1997).
Converted amounts (≈) assume the structure as drawn. Where two headings read alike, the source gives them in different places.

How the values were obtained:
Type in all cases: cell-based
test strains = experiment: Antimicrobial activity in vitro, test strains overall; details: for antimicrobial activities compared with compound (1): vs compound (1); for antimicrobial activities compared with starting materials (1), (2) and (33): 9-O-acylated vs free 9-hydroxyl
Protocol: (§1) The effect of the first aspect of the present invention resides in the creation of a novel and useful 16-membered macrolide derivative. Antimicrobial activities of the compounds of the present invention were determined by measuring minimum inhibitory concentration (MIC). Minimum inhibitory concentration was determined by the agar plate dilution method in the following manner.
(§2) Test strains were subjected to seed culture using Sensitivity test broth (STB, Nissui Pharmaceutical) except that the strains belonging to the genus Streptococcus, Branhamella and Haemophilus were cultured on blood agar plate. A 5 μl portion of cell suspension of the test strains having about 10^6 CFU/ml was inoculated into Sensitivity disk agar (SDA, Nissui Pharmaceutical) supplemented with 5% horse blood and incubated at 37° C. for 20 hours. Then, MIC was measured. […] Antimicrobial activities in vitro of the compounds (1) and (2) are shown in Table 1, and those of the compounds (3) and (4) in Table 3.

[1] = tested on: clinically important Gram-positive bacteria; experiment: Antimicrobial activity / growth inhibition
Protocol: as §1, §2

B. catarrhalis W-0506 = experiment: MIC, agar plate dilution method; details: Moraxella catarrhalis
Protocol: as §1, §2

S. pyogenes Cook = experiment: MIC, agar plate dilution method; details: Streptococcus pyogenes; 37° C., 20 hours, SDA with 5% horse blood; read-out: Antimicrobial activity (MIC)
Protocol: as §1, §2

E. coli NIHJ JC-2 = experiment: MIC, agar plate dilution method; details: Escherichia coli, NIHJJC2, 20 h, 37° C., SDA with 5% horse blood, read-out: Antimicrobial activity (MIC)
Protocol: as §1, §2

E. faecalis W-73 = experiment: MIC, agar plate dilution method; details: Enterococcus faecalis, W73, 20 h, read-out: Antimicrobial activity (MIC)
Protocol: as §1, §2

K. pneumoniae PCI602 = experiment: MIC, agar plate dilution method; details: Klebsiella pneumoniae, 37° C., SDA with 5% horse blood, read-out: Antimicrobial activity (MIC)
Protocol: as §1, §2

S. aureus MS15009/pMS99 = experiment: MIC, agar plate dilution method; details: Staphylococcus aureus, MS15009/PMS99, 20 h, read-out: Antimicrobial activity (MIC)
Protocol: as §1, §2

S. aureus 209P JC-1 = experiment: MIC, agar plate dilution method; details: Staphylococcus aureus, 209P, 20 h
Protocol: as §1, §2

B. catarrhalis W-0500 = experiment: MIC, agar plate dilution method; details: Moraxella catarrhalis
Protocol: as §1, §2

S. aureus M133 = experiment: MIC, agar plate dilution method; details: Staphylococcus aureus, M133, 20 h
Protocol: as §1, §2

S. epidermidis ATCC14990 = experiment: MIC, agar plate dilution method; details: Staphylococcus epidermidis
Protocol: as §1, §2

S. aureus MS15027 = experiment: MIC, agar plate dilution method; details: Staphylococcus aureus
Protocol: as §1, §2

M. luteus ATCC9341 = experiment: MIC, agar plate dilution method; details: Micrococcus luteus
Protocol: as §1, §2

S. pneumoniae IP692 = experiment: MIC, agar plate dilution method; details: Streptococcus pneumoniae, IP692, 20 h
Protocol: as §1, §2

S. pneumoniae Type 1 = experiment: MIC, agar plate dilution method; details: Streptococcus pneumoniae
Protocol: as §1, §2

S. aureus MS15009/pMS98 = experiment: MIC, agar plate dilution method; details: Staphylococcus aureus, MS15009/PMS98, 20 h, read-out: Antimicrobial activity (MIC), 37° C., 20 hours, SDA with 5% horse blood
Protocol: as §1, §2

S. aureus MS15026 = experiment: MIC, agar plate dilution method; details: Staphylococcus aureus, 37° C., 20 hours, SDA with 5% horse blood, read-out: Antimicrobial activity (MIC)
Protocol: as §1, §2

S. aureus M126 = experiment: MIC, agar plate dilution method; details: Staphylococcus aureus, 37° C., 20 hours, SDA with 5% horse blood, read-out: Antimicrobial activity (MIC)
Protocol: as §1, §2

H. influenzae Type b = experiment: MIC, agar plate dilution method; details: Haemophilus influenzae
Protocol: as §1, §2

[2] = W0506, 37° C., 20 hours, SDA with 5% horse blood, read-out: Antimicrobial activity (MIC)
[3] = read-out: Antimicrobial activity (MIC), 37° C., 20 hours, SDA with 5% horse blood
[4] = W0500, 37° C., 20 hours, SDA with 5% horse blood, read-out: Antimicrobial activity (MIC)
[5] = 37° C., 20 hours, SDA with 5% horse blood, read-out: Antimicrobial activity (MIC)
[6] = ATCC14990, 37° C., 20 hours, SDA with 5% horse blood, read-out: Antimicrobial activity (MIC)
[7] = MS15027, 20 h, read-out: Antimicrobial activity (MIC), 37° C., 20 hours, SDA with 5% horse blood
[8] = ATCC9341, 37° C., 20 hours, SDA with 5% horse blood, read-out: Antimicrobial activity (MIC)
[9] = TYPE1, 37° C., 20 hours, SDA with 5% horse blood, read-out: Antimicrobial activity (MIC)
[10] = 20 h, read-out: Antimicrobial activity (MIC), 37° C., 20 hours, SDA with 5% horse blood
[11] = ATCC14990, 20 h, read-out: Antimicrobial activity (MIC), 37° C., 20 hours, SDA with 5% horse blood
[12] = MS15027, 37° C., 20 hours, SDA with 5% horse blood, read-out: Antimicrobial activity (MIC)
[13] = ATCC9341, 20 h, read-out: Antimicrobial activity (MIC), 37° C., 20 hours, SDA with 5% horse blood
[14] = TYPE1, 20 h, read-out: Antimicrobial activity (MIC), 37° C., 20 hours, SDA with 5% horse blood

SMILES	MIC (B. catarrhalis W-0506; [2]) [µg/mL]	MIC (S. pyogenes Cook) [µg/mL]	MIC (E. coli NIHJ JC-2) [µg/mL]	MIC (K. pneumoniae PCI602; PCI602, 20 h) [µg/mL]	MIC (S. aureus MS15009/pMS99) [µg/mL]	MIC (B. catarrhalis W-0500; [4]) [µg/mL]	MIC (S. epidermidis ATCC14990; [6]) [µg/mL]	MIC (S. aureus MS15027; [7]) [µg/mL]	MIC (M. luteus ATCC9341; [8]) [µg/mL]	MIC (S. pneumoniae Type 1; [9]) [µg/mL]	MIC (S. aureus MS15009/pMS98) [µg/mL]	MIC (S. aureus MS15026) [µg/mL]	MIC (S. aureus M126) [µg/mL]	MIC (H. influenzae Type b; [10]) [µg/mL]	antimicrobial activities compared with starting materials (1), (2) and (33) (test strains)	also measured
CCOC(C)O[C@H]1/C=C/C=C/C[C@@H](C)OC(=O)C[C@@H](OC(=O)CC)[C@H](OC)[C@@H](O[C@@H]2O[C@H](C)[C@@H](O[C@H]3C[C@@](C)(OC)[C@@H](OC(=O)CC)[C@H](C)O3)[C@H](N(C)C)[C@H]2O)[C@@H](CC=O)C[C@H]1C (single isomer, unassigned) [(16H)]																antimicrobial activities compared with compound (1) (test strains): inferior to those of the compound (1)
CCOC(C)O[C@H]1/C=C/C=C/C[C@@H](C)OC(=O)C[C@@H](OC(=O)CC)[C@H](OC)[C@@H](O[C@@H]2O[C@H](C)[C@@H](O[C@H]3C[C@@](C)(OC)[C@@H](OC(=O)CC)[C@H](C)O3)[C@H](N(C)C)[C@H]2O)[C@@H](CC=O)C[C@H]1C (single isomer, unassigned) [(16L)]																antimicrobial activities compared with compound (1) (test strains): inferior to those of the compound (1)
CCC(=O)O[C@@H]1CC(=O)O[C@H](C)C/C=C/C=C/[C@H](O)[C@H](C)C[C@H](CC=O)[C@H](O[C@@H]2O[C@H](C)[C@@H](O[C@H]3C[C@@](C)(OC)[C@@H](O)[C@H](C)O3)[C@H](N(C)C)[C@H]2O)[C@H]1OC [(3), 3"-O-methylmidecamycin M1]	3.13 (≈ 4.05 µM)	0.2 (≈ 0.259 µM)	> 100	> 100	> 100	3.13 (≈ 4.05 µM)	1.56 (≈ 2.02 µM)	0.78 (≈ 1.01 µM)	0.1 (≈ 0.13 µM)	0.1 (≈ 0.13 µM)	0.78 (≈ 1.01 µM)	> 100	> 100	50 (≈ 64.8 µM)		antimicrobial activities (in words) [1]: strong antimicrobial activities; improvement of MIC values over corresponding compounds with free 3"-hydroxyl (midecamycin M1, leucomycin V) (test strains; most of the test strains): improved two to three times; antimicrobial activities in comparison with midecamycin M1 (test strains; presumed in vivo metabolite of compound (5)): superior antimicrobial activities; MIC (E. faecalis W-73): 0.78 µg/mL (≈ 1.01 µM); MIC (S. aureus 209P JC-1; [3]): 0.39 µg/mL (≈ 0.505 µM); MIC (S. aureus M133; [5]): 1.56 µg/mL (≈ 2.02 µM); MIC (S. pneumoniae IP692; [5]): 0.1 µg/mL (≈ 0.13 µM)
CCC(=O)O[C@H]1[C@H](C)O[C@@H](O[C@H]2[C@H](N(C)C)[C@@H](O)[C@H](O[C@H]3[C@@H](CC=O)C[C@@H](C)[C@@H](OC(C)=O)/C=C/C=C/C[C@@H](C)OC(=O)C[C@@H](O)[C@@H]3OC)O[C@@H]2C)C[C@@]1(C)OC [(6), 9-O-acetyl-3"-O-methylleucomycin A7]															strong antimicrobial activities by themselves though slightly lower than those of their starting materials	
CCCC(=O)O[C@H]1[C@H](C)O[C@@H](O[C@H]2[C@H](N(C)C)[C@@H](O)[C@H](O[C@H]3[C@@H](CC=O)C[C@@H](C)[C@@H](OC(C)=O)/C=C/C=C/C[C@@H](C)OC(=O)C[C@@H](O)[C@@H]3OC)O[C@@H]2C)C[C@@]1(C)OC [(39), 9-O-acetyl-3"-O-methylleucomycin A5]															strong antimicrobial activities by themselves though slightly lower than those of their starting materials	
CCCC(=O)O[C@H]1[C@H](C)O[C@@H](O[C@H]2[C@H](N(C)C)[C@@H](O)[C@H](O[C@H]3[C@@H](CC=O)C[C@@H](C)[C@@H](OC(=O)CC)/C=C/C=C/C[C@@H](C)OC(=O)C[C@@H](O)[C@@H]3OC)O[C@@H]2C)C[C@@]1(C)OC [(40), 9-O-propionyl-3"-O-methylleucomycin A5]															strong antimicrobial activities by themselves though slightly lower than those of their starting materials	
CCC(=O)O[C@H]1[C@H](C)O[C@@H](O[C@H]2[C@H](N(C)C)[C@@H](O)[C@H](O[C@H]3[C@@H](CC=O)C[C@@H](C)[C@@H](O)/C=C/C=C/C[C@@H](C)OC(=O)C[C@@H](O)[C@@H]3OC)O[C@@H]2C)C[C@@]1(C)O [LM-A7, leucomycin A7, reference compound]	0.78 (≈ 1.03 µM)	0.39 (≈ 0.515 µM)	> 100	> 100	> 100	0.78 (≈ 1.03 µM)	0.39 (≈ 0.515 µM)	3.13 (≈ 4.13 µM)	0.05 (≈ 0.066 µM)	0.39 (≈ 0.515 µM)		> 100	> 100	50 (≈ 66 µM)		MIC (B. catarrhalis W-0506; W0506, 20 h, read-out: Antimicrobial activity (MIC), 37° C., 20 hours, SDA with 5% horse blood): 12.5 µg/mL (≈ 16.5 µM); MIC (B. catarrhalis W-0500; W0500, 20 h, read-out: Antimicrobial activity (MIC), 37° C., 20 hours, SDA with 5% horse blood): 12.5 µg/mL (≈ 16.5 µM); MIC (S. epidermidis ATCC14990; [11]): 3.13 µg/mL (≈ 4.13 µM); MIC (S. aureus MS15027; [12]): 0.39 µg/mL (≈ 0.515 µM); MIC (M. luteus ATCC9341; [13]): 0.2 µg/mL (≈ 0.264 µM); MIC (S. pneumoniae Type 1; [14]): 0.2 µg/mL (≈ 0.264 µM); MIC (H. influenzae Type b; [5]): 6.25 µg/mL (≈ 8.25 µM)
CCC(=O)O[C@@H]1CC(=O)O[C@H](C)C/C=C/C=C/[C@H](O)[C@H](C)C[C@H](CC=O)[C@H](O[C@@H]2O[C@H](C)[C@@H](O[C@H]3C[C@@](C)(O)[C@@H](OC(=O)CC)[C@H](C)O3)[C@H](N(C)C)[C@H]2O)[C@H]1OC [MDM, midecamycin A1, reference compound]	3.13 (≈ 3.85 µM)				> 100	3.13 (≈ 3.85 µM)	0.78 (≈ 0.958 µM)		0.05 (≈ 0.0614 µM)	0.39 (≈ 0.479 µM)	0.39 (≈ 0.479 µM)	> 100	> 100			MIC (E. faecalis W-73; 37° C., 20 hours, SDA with 5% horse blood): 3.13 µg/mL (≈ 3.85 µM); MIC (K. pneumoniae PCI602; PCI602, 20 hours): > 100 µg/mL; MIC (S. aureus 209P JC-1; [5]): 0.39 µg/mL (≈ 0.479 µM); MIC (S. aureus M133; [5]): 0.78 µg/mL (≈ 0.958 µM); MIC (S. aureus MS15027; [12]): 0.78 µg/mL (≈ 0.958 µM); MIC (S. pneumoniae IP692; [5]): 0.39 µg/mL (≈ 0.479 µM); MIC (H. influenzae Type b; [5]): 25 µg/mL (≈ 30.7 µM)
CCC(=O)O[C@@H]1CC(=O)O[C@H](C)C/C=C/C=C/[C@H](O)[C@H](C)C[C@H](CC=O)[C@H](O[C@@H]2O[C@H](C)[C@@H](O[C@H]3C[C@@](C)(O)[C@@H](O)[C@H](C)O3)[C@H](N(C)C)[C@H]2O)[C@H]1OC [MDM-M1, midecamycin M1, reference compound]	25 (≈ 33 µM)	1.56 (≈ 2.06 µM)	> 100	> 100	> 100	25 (≈ 33 µM)		6.25 (≈ 8.25 µM)			6.25 (≈ 8.25 µM)	> 100	> 100	100 (≈ 132 µM)		MIC (E. faecalis W-73): 12.5 µg/mL (≈ 16.5 µM); MIC (S. aureus 209P JC-1; [3]): 6.25 µg/mL (≈ 8.25 µM); MIC (S. aureus M133; [3]): 12.5 µg/mL (≈ 16.5 µM); MIC (S. epidermidis ATCC14990; [11]): 12.5 µg/mL (≈ 16.5 µM); MIC (M. luteus ATCC9341; [13]): 0.39 µg/mL (≈ 0.515 µM); MIC (S. pneumoniae IP692; [3]): 0.78 µg/mL (≈ 1.03 µM); MIC (S. pneumoniae Type 1; [14]): 0.78 µg/mL (≈ 1.03 µM)
